From patent publication US20230038929A1, “Fused Tricyclic Heterocyclic Compounds and Uses Thereof” (Verge Analytics, Inc., priority 2019, published 2023)
Structures can show the parent of a compound that is named as a salt.

target: T1, Full length human recombinant PIKFYVE (Homo sapiens, UniProt Q9Y2I7, L932S/Q1183K/Q995L/S1033A/S696N/T998S); assay: Inhibition of PIKfyve (microfluidic electrophoresis kinase assay); type: biochemical; conditions: 2 nM enzyme, 1 μM PI3P, 3 h at room temperature, 12 concentrations; read-out: PIKfyve IC50
T1 construct: Full length human recombinant PIKFYVE; purchased Carna Biosciences (Kobe, Japan); host or cells: baculovirus expression system (insect cells)
Method: Biological Example 1: Inhibition of PIKfyve
Full length human recombinant PIKFYVE expressed in baculovirus expression system as N-terminal GST-fusion protein (265 kDa) was obtained from Carna Biosciences (Kobe, Japan). The kinase substrate was prepared by mixing and sonicating fluorescently-labeled phosphatidylinositol 3-phosphate (PI3P) with phospho-L-serine (PS) at a 1:10 ratio in 50 mM HEPES buffer pH7.5.
The kinase reactions were assembled in 384-well plates (Greiner) in a total volume of […] as follows. Kinase protein was pre-diluted in an assay buffer comprising 25 mM HEPES, pH 7.5, 1 mM DTT, 2.5 mM MgCl2, and 2.5 mM MnCl2, and 0.005% Triton X-100, and dispensed into a 384-well plate (10 μL per well). Test compounds were serially pre-diluted in DMSO and added to the protein samples by acoustic dispensing (Labcyte Echo). The concentration of DMSO was equalized to 1% in all samples. All test compounds were tested at 12 concentrations. Apilimod was used as a reference compound and was tested in identical manner in each assay plate. Control samples (0%-inhibition, in the absence of inhibitor, DMSO only) and 100%-inhibition (in the absence of enzyme) were assembled in replicates of four and were used to calculate %-inhibition in the presence of compounds. The reactions were initiated by addition of 10 μL of 2× PI3P/PS substrate supplemented with ATP. The final concentration of enzyme was 2 nM, the final concentration of ATP was […], and the final concentration of PI3P/PS substrate was 1 μM (PI3P). The kinase reactions were allowed to proceed for 3 h at room temperature. Following incubation, the reactions were quenched by addition of […] of termination buffer (100 mM HEPES, pH 7.5, 0.01% Triton X-100, 20 mM EDTA). Terminated plates were analyzed on a microfluidic electrophoresis instrument (Caliper LabChip® 3000, Caliper Life Sciences/Perkin Elmer). The change in the relative fluorescence intensity of the PI(3)P substrate and PI(3,5)P product peaks was measured. The activity in each test sample was determined as the product to sum ratio (PSR): P/(S+P), where P is the peak height of the product, and S is the peak height of the substrate. Percent inhibition (Pinh) was determined using the following equation:
Pinh=(PSR0%inh−PSRcompound)/(PSR0%inh−P100%inh)*100
in which PSRcompound is the product/sum ratio in the presence of compound, PSR0%inh is the product/sum ratio in the absence of compound, and the PSR100%inh is the product/sum ratio in the absence of the enzyme. To determine the ICso of test compounds (50%-inhibition) the %-inh cdata (Pinh versus compound concentration) were fitted by a four-parameter sigmoid dose-response model using XLfit software (IDBS).

T1 sequence (Q9Y2I7 whole entry S696N/L932S/Q995L/T998S/S1033A/Q1183K): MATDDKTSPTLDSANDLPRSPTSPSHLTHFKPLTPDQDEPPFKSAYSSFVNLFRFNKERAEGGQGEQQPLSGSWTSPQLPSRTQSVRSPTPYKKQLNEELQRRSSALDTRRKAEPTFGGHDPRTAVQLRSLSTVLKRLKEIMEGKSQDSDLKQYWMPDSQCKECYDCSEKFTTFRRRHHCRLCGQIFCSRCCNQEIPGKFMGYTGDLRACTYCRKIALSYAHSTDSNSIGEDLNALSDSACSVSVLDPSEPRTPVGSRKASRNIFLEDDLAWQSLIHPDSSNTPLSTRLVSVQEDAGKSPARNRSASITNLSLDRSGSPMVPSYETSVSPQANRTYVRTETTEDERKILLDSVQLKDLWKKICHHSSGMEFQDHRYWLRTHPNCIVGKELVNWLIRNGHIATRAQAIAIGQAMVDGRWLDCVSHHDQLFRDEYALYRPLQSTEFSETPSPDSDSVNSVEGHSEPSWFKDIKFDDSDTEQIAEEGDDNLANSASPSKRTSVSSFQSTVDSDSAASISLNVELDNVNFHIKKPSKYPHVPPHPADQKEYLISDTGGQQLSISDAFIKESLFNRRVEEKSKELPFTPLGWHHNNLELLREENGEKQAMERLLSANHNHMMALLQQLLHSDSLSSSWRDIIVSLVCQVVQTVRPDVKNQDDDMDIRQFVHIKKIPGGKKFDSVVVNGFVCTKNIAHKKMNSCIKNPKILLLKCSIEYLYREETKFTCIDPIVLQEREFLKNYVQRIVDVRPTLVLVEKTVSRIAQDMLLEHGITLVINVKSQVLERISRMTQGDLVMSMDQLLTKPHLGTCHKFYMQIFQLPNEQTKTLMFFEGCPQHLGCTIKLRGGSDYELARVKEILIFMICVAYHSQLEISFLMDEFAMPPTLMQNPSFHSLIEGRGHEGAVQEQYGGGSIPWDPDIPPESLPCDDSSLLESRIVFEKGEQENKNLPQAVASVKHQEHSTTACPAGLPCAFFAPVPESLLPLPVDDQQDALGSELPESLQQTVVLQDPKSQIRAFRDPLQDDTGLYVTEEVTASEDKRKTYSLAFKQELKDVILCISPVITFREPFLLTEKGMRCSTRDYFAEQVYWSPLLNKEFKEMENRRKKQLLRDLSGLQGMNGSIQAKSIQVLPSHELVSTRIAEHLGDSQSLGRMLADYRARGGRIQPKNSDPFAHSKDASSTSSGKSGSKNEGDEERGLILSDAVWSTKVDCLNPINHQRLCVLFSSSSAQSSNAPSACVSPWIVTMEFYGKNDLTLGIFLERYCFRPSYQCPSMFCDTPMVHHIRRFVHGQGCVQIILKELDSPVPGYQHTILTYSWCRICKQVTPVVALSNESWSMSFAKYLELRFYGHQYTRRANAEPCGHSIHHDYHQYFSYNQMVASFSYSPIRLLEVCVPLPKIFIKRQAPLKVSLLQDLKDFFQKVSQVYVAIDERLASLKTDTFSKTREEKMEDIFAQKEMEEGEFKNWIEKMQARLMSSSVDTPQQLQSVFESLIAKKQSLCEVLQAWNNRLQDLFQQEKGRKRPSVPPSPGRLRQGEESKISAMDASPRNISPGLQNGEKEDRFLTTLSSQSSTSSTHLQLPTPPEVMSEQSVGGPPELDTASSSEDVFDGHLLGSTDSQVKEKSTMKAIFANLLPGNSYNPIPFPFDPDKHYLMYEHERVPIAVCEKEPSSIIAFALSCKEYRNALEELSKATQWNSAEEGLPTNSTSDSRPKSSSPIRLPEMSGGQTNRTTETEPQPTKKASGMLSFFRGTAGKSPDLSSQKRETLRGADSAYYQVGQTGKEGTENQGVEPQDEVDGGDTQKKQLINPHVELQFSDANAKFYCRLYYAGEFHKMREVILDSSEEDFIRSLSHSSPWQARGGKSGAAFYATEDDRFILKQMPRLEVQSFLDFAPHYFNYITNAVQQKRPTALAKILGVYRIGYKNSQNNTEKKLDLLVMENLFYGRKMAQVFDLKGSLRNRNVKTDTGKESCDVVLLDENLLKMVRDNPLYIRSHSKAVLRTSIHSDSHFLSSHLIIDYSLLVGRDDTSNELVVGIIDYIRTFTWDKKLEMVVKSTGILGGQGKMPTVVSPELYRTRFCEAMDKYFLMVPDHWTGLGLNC

SMILES	IC50 [nM]
c1cnc2oc3c(N4CCOCC4)ncnc3c2c1 [Example 52, 4-Morpholinopyrido[3′,2′:4,5]furo[3,2-d]pyrimidine]	> 10000
Brc1cnc2oc3c(N4CCOCC4)nc(Nc4cc(-c5ccccc5)[nH]n4)nc3c2c1 [Example 51, 8-bromo-4-morpholino-N-(5-phenyl-1H-pyrazol-3-yl)pyrido[3′,2′:4,5]furo[3,2-d]pyrimidin-2-amine]	862
O=C(Nc1nc(N2CCOCC2)c2oc3ncccc3c2n1)c1ccccc1 [Example 3]	> 10000
Fc1ccc(-c2cc(Nc3nc(N4CCOCC4)c4oc5ncccc5c4n3)[nH]n2)cc1F [Example 19, N-(3-(3,4-difluorophenyl)-1H-pyrazol-5-yl)-4-morpholinopyrido[3′,2′:4,5]furo[3,2-d]pyrimidin-2-amine hydrochloride]	2180
c1csc(-c2cc(Nc3nc(N4CCOCC4)c4oc5ncccc5c4n3)[nH]n2)c1 [Example 60, 4-morpholino-N-(3-(thiophen-2-yl)-1H-pyrazol-5-yl)pyrido[3′,2′:4,5]furo[3,2-d]pyrimidin-2-amine hydrochloride]	37
FC(F)(F)c1cccc(-c2cc(Nc3nc(N4CCOCC4)c4oc5ncccc5c4n3)[nH]n2)c1 [Example 18, 4-morpholino-N-(3-(3-(trifluoromethyl)phenyl)-1H-pyrazol-5-yl)pyrido[3′,2′:4,5]furo[3,2-d]pyrimidin-2-amine hydrochloride]	1630
Fc1ccccc1-c1cc(Nc2nc(N3CCOCC3)c3oc4ncccc4c3n2)[nH]n1 [Example 15, N-(3-(2-fluorophenyl)-1H-pyrazol-5-yl)-4-morpholinopyrido[3′,2′:4,5]furo[3,2-d]pyrimidin-2-amine hydrochloride]	108
Cc1ccnc(-c2cc(Nc3nc(N4CCOCC4)c4oc5ncccc5c4n3)[nH]n2)c1 [Example 7, N-(3-(4-Methylpyridin-2-yl)-1H-pyrazol-5-yl)-4-morpholinopyrido[3′,2′:4,5]furo[3,2-d]pyrimidin-2-amine hydrochloride]	573
c1ccc(Cc2cc(Nc3nc(N4CCOCC4)c4oc5ncccc5c4n3)[nH]n2)cc1 [Example 58, N-(3-benzyl-1H-pyrazol-5-yl)-4-morpholinopyrido[3′,2′:4,5]furo[3,2-d]pyrimidin-2-amine hydrochloride]	831
FC(F)(F)c1cc(Nc2nc(N3CCOCC3)c3oc4ncccc4c3n2)[nH]n1 [Example 57, 4-morpholino-N-(3-(trifluoromethyl)-1H-pyrazol-5-yl)pyrido[3′,2′:4,5]furo[3,2-d]pyrimidin-2-amine hydrochloride]	5900
Clc1cccc(-c2cc(Nc3nc(N4CCOCC4)c4oc5ncccc5c4n3)[nH]n2)c1 [Example 17, N-(3-(3-chlorophenyl)-1H-pyrazol-5-yl)-4-morpholinopyrido[3′,2′:4,5]furo[3,2-d]pyrimidin-2-amine hydrochloride]	129
CN(C)CCOc1ccc2c(n1)oc1c(N3CCOCC3)nc(Nc3cc(-c4ccccc4)n[nH]3)nc12 [Example 4, 7-(2-(Dimethylamino)ethoxy)-4-morpholino-N-(3-phenyl-1H-pyrazol-5-yl)pyrido[3′,2′:4,5]furo[3,2-d]pyrimidin-2-amine hydrochloride]	68
Cc1ccc(-c2cc(Nc3nc(N4CCOCC4)c4oc5ncccc5c4n3)[nH]n2)cc1 [Example 50, 4-morpholino-N-(3-(p-tolyl)-1H-pyrazol-5-yl)pyrido[3′,2′:4,5]furo[3,2-d]pyrimidin-2-amine]	398
CN(C)CCc1cnc2oc3c(N4CCOCC4)nc(Nc4cc(-c5ccccc5)n[nH]4)nc3c2c1 [Example 13, 8-(2-(Dimethylamino)ethyl)-4-morpholino-N-(3-phenyl-1H-pyrazol-5-yl)pyrido[3′,2′:4,5]furo[3,2-d]pyrimidin-2-amine]	143
COc1ccc2c(n1)oc1c(N3CCOCC3)nc(Nc3cc(-c4ccccc4)n[nH]3)nc12 [Example 30, 7-methoxy-4-morpholino-N-(3-phenyl-1H-pyrazol-5-yl)pyrido[3′,2′:4,5]furo[3,2-d]pyrimidin-2-amine hydrochloride]	163
c1ccc(-c2cccc(Nc3nc(N4CCOCC4)c4oc5ncccc5c4n3)c2)cc1 [Example 45, N-([1,1′-biphenyl]-3-yl)-4-morpholinopyrido[3′,2′:4,5]furo[3,2-d]pyrimidin-2-amine]	3980
c1ccc(-c2ccc(Nc3nc(N4CCOCC4)c4oc5ncccc5c4n3)cc2)cc1 [Example 44, N-([1,1′-biphenyl]-4-yl)-4-morpholinopyrido[3′,2′:4,5]furo[3,2-d]pyrimidin-2-amine]	356
Cc1ccccc1-c1cc(Nc2nc(N3CCOCC3)c3oc4ncccc4c3n2)[nH]n1 [Example 48, 4-morpholino-N-(3-(o-tolyl)-1H-pyrazol-5-yl)pyrido[3′,2′:4,5]furo[3,2-d]pyrimidin-2-amine]	515
Fc1cccc(-c2cc(Nc3nc(N4CCOCC4)c4oc5ncccc5c4n3)[nH]n2)c1 [Example 16, N-(3-(3-fluorophenyl)-1H-pyrazol-5-yl)-4-morpholinopyrido[3′,2′:4,5]furo[3,2-d]pyrimidin-2-amine hydrochloride]	129
c1ccc(-c2cc(Nc3nc(N4CCOCC4)c4oc5ncccc5c4n3)[nH]n2)nc1 [Example 6, 4-Morpholino-N-(3-(pyridin-2-yl)-1H-pyrazol-5-yl)pyrido[3′,2′:4,5]furo[3,2-d]pyrimidin-2-amine hydrochloride]	251
c1cnc2oc3c(N4CCOCC4)nc(Nc4ccncn4)nc3c2c1 [Example 41, 4-morpholino-N-(pyrimidin-4-yl)pyrido[3′,2′:4,5]furo[3,2-d]pyrimidin-2-amine]	> 10000
COc1cccc(-c2cc(Nc3nc(N4CCOCC4)c4oc5ncccc5c4n3)[nH]n2)c1 [Example 34, N-(3-(3-methoxyphenyl)-1H-pyrazol-5-yl)-4-morpholinopyrido[3′,2′:4,5]furo[3,2-d]pyrimidin-2-amine hydrochloride]	303
c1ccc(-c2ccccc2Nc2nc(N3CCOCC3)c3oc4ncccc4c3n2)cc1 [Example 46, N-([1,1′-biphenyl]-2-yl)-4-morpholinopyrido[3′,2′:4,5]furo[3,2-d]pyrimidin-2-amine]	3870
c1ccc(-c2c[nH]c(Nc3nc(N4CCOCC4)c4oc5ncccc5c4n3)n2)cc1 [Example 20, 4-morpholino-N-(4-phenyl-1H-imidazol-2-yl)pyrido[3′,2′:4,5]furo[3,2-d]pyrimidin-2-amine hydrochloride]	4750
c1ccc(CNc2nc(N3CCOCC3)c3oc4ncccc4c3n2)cc1 [Example 2, N-Benzyl-4-morpholinopyrido[3′,2′:4,5]furo[3,2-d]pyrimidin-2-amine]	> 10000
c1cnc(Nc2nc(N3CCOCC3)c3oc4ncccc4c3n2)nc1 [Example 42, 4-morpholino-N-(pyrimidin-2-yl)pyrido[3′,2′:4,5]furo[3,2-d]pyrimidin-2-amine]	> 10000
c1cnc2oc3c(N4CCOCC4)nc(Nc4cc(CC5CC5)n[nH]4)nc3c2c1 [Example 54, N-(3-(cyclopropylmethyl)-1H-pyrazol-5-yl)-4-morpholinopyrido[3′,2′:4,5]furo[3,2-d]pyrimidin-2-amine hydrochloride]	2600
Cc1cccc(-c2cc(Nc3nc(N4CCOCC4)c4oc5ncccc5c4n3)[nH]n2)n1 [Example 33, N-(3-(6-methylpyridin-2-yl)-1H-pyrazol-5-yl)-4-morpholinopyrido[3′,2′:4,5]furo[3,2-d]pyrimidin-2-amine hydrochloride]	261
CN1CCN(CCCOc2ccc3c(n2)oc2c(N4CCOCC4)nc(Nc4cc(-c5ccccc5)n[nH]4)nc23)CC1 [Example 29, 7-(3-(4-methylpiperazin-1-yl)propoxy)-4-morpholino-N-(3-phenyl-1H-pyrazol-5-yl)pyrido[3′,2′:4,5]furo[3,2-d]pyrimidin-2-amine hydrochloride]	3
c1cnc2oc3c(N4CCOCC4)nc(Nc4cc(C5CCCC5)n[nH]4)nc3c2c1 [Example 59, N-(3-cyclopentyl-1H-pyrazol-5-yl)-4-morpholinopyrido[3′,2′:4,5]furo[3,2-d]pyrimidin-2-amine hydrochloride]	1290
